Molecules are shown by their SMILES. Calls of active or inactive are those of the source. No cut-off for these calls is given here.

The target of assay [1] is T1, Lectin (Burkholderia cenocepacia (strain ATCC BAA-245 / DSM 16553 / LMG 16656/ NCTC 13227 / J2315 / CF5610) (Burkholderia cepacia (strain J2315)), UniProt B4EH87).
T1 sequence (B4EH87 whole entry): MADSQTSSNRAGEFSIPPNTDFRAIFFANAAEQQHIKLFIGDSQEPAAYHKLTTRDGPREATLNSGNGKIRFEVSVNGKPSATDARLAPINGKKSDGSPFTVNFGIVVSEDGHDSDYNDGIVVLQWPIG
Nature of the assay: Binding affinity to Burkholderia cenocepacia J2315 BC2L-A expressed in Escherichia coli BL21 (DE3) cells by isothermal titration calorimetry.

In assay [2] the target is T2, Lectin (Burkholderia cenocepacia (strain ATCC BAA-245 / DSM 16553 / LMG 16656/ NCTC 13227 / J2315 / CF5610) (Burkholderia cepacia (strain J2315))) (UniProt B4EH87).
T2 sequence (whole entry): T1 sequence (B4EH87 whole entry)
Nature of the assay: Displacement of N-(fluorescein-5-yl)-N'-(alpha-D-mannopyranosyloxyethyl)-thiocarbamide from Burkholderia cenocepacia J2315 BC2L-A expressed in Escherichia coli BL21 (DE3) cells up to 666 uM incubated for 3 to 4 hrs by fluorescence polarization assay relative to control. On the technique in general: Polarisation of emitted light reports the rotation of a fluorescent probe.

Assay [3] in a line: Displacement of N-(fluorescein-5-yl)-N'-(alpha-L-fucopyranosyl-O-ethyl)-thiocarbamide from Pseudomonas aeruginosa LecB expressed in Escherichia coli BL21 (DE3) cells up to 666 uM incubated for 6 hrs by fluorescence polarization assay.
For assay [4], the target named is T1, Lectin (Burkholderia cenocepacia (strain ATCC BAA-245 / DSM 16553 / LMG 16656/ NCTC 13227 / J2315 / CF5610) (Burkholderia cepacia (strain J2315)), UniProt B4EH87). Briefly: Displacement of N-(fluorescein-5-yl)-N'-(alpha-D-mannopyranosyloxyethyl)-thiocarbamide from Burkholderia cenocepacia J2315 BC2L-A expressed in Escherichia coli BL21 (DE3) cells incubated for 3 to 4 hrs by fluorescence polarization assay.

For assay [5] the target is unchanged. Nature of the assay: Binding affinity to Burkholderia cenocepacia J2315 BC2L-A expressed in Escherichia coli BL21 (DE3) cells.
Assay [6] shares this target. Briefly: Binding affinity to Burkholderia cenocepacia J2315 BC2L-A expressed in Escherichia coli BL21 (DE3) cells by microcalorimetry.

Consider `CO[C@H]1OC(C(O)CO)C(O)C(O)C1O` (stereo not given in full), for which the equilibrium dissociation constant (Kd) (as a rule, the equilibrium constant for the complex coming apart) in assay [1] was found to be 54 µM. This lies in the double-digit micromolar range.

Consider `CO[C@H]1O[C@H](CI)[C@@H](O)[C@H](O)[C@@H]1O`, for which the inhibition (usually the share of the control response that was lost under treatment) in assay [2] was “inactive”.

Consider `CO[C@H]1O[C@H](CCl)[C@@H](O)[C@H](O)[C@@H]1O`, for which the inhibition result in assay [2] was “inactive”. As to `C=CCO[C@H]1O[C@H](CO)[C@@H](O)[C@H](OC)[C@@H]1O`, the inhibition entry in assay [3] is “inactive”. This compound also registered an inhibition in assay [2] of 56%. For `CO[C@H]1O[C@H]([C@H](O)CNC(=O)c2ccccc2)[C@@H](O)[C@H](O)[C@@H]1O`, the inhibition entry in assay [2] is “inactive”. `OC[C@H]1OC[C@@H](O)[C@@H](O)[C@@H]1O`: the half-maximal inhibitory concentration (IC50) (usually the midpoint of a concentration-inhibition curve) in assay [4] came to 2.9 µM. Consider `Cc1cc(=O)oc2cc(O[C@@H]3O[C@H](CO)[C@@H](O)[C@H](O)[C@@H]3O)ccc12`, for which the IC50 in assay [4] was determined as 7.4 µM. Take `C[C@@H]1OC[C@@H](F)[C@H](O)[C@@H]1O`: the inhibition result in assay [3] and in assay [2] was “inactive” throughout. Consider `CO[C@H]1O[C@H](CN)[C@@H](O)[C@H](O)[C@@H]1O`, for which, in assay [2], the inhibition result is “inactive”.

As to `C[C@@H]1O[C@H](CO)[C@@H](O)[C@H](O)[C@@H]1O`, the IC50 in assay [4] came out at 13 µM. That is a double-digit micromolar value. Turning to `CO[C@H]1O[C@H]([C@H](O)CNC(=O)/C=C/c2ccccc2)[C@@H](O)[C@H](O)[C@@H]1O`, the inhibition result in assay [2] was “inactive”.

In assay [4], `CO[C@H]1O[C@H]([C@@H](O)CNS(=O)(=O)c2ccc(C)cc2)[C@@H](O)[C@H](O)[C@@H]1O` gave an IC50 of 19.1 µM. Consider `CO[C@H]1O[C@@H](C)[C@@H](O)[C@@H](O)[C@@H]1O`, for which the inhibition entry in assay [2] is “inactive”.

As for `CO[C@H]1O[C@H]([C@@H](O)CNC(=O)c2ccccc2)[C@@H](O)[C@H](O)[C@@H]1O`, the IC50 in assay [4] is 104 µM. With `C=CCO[C@H]1O[C@H](CO)[C@@H](OC)[C@H](O)[C@@H]1O`, the inhibition entry in assay [3] and in assay [2] was “inactive” each time. In the case of `CO[C@H]1O[C@H]([C@@H](O)CNC(C)=O)[C@@H](O)[C@H](O)[C@@H]1O`, the IC50 in assay [4] stood at 116 µM. Take `C[C@H](O)[C@@H](O)[C@@H](O)[C@H](O)C=O` [L-FUCOSE]: the IC50 worked out at 2300 µM in assay [5] and 498 µM in assay [4]. As to `CO[C@@H]1O[C@@H](C)[C@@H](O)[C@@H](O)[C@@H]1O`, the inhibition entry in assay [2] is “inactive”. `CO[C@H]1O[C@H]([C@@H](O)CNC(=O)/C=C/c2ccccc2)[C@@H](O)[C@H](O)[C@@H]1O` showed an IC50 in assay [4] of 64 µM. On to `C=CCO[C@H]1O[C@H](CO)[C@@H](O)[C@H](O)[C@@H]1O`, for which the 50% inhibitory concentration (IC50) in assay [4] worked out at 13.6 µM. With `C[C@@H]1OC[C@@H](O)[C@H](O)[C@@H]1O`, the inhibition result in assay [2] was “inactive”.

As for `OC[C@H]1OC(O)[C@@H](O)[C@@H](F)[C@@H]1O` (stereo not given in full), the inhibition result in assay [3] and in assay [2] was “inactive” each time. In the case of `CO[C@H]1O[C@H](CO)[C@@H](O)[C@H](O)[C@@H]1O`, the affinity in assay [6], expressed as Kd, was 2.7 µM. In assay [4], this compound registered an IC50 of 7 µM. Turning to `CO[C@H]1O[C@H](CBr)[C@@H](O)[C@H](O)[C@@H]1O`, the inhibition result in assay [2] is “inactive”. On to `CO[C@H]1O[C@H]([C@@H](O)CNS(=O)(=O)c2c(C)cc(C)cc2C)[C@@H](O)[C@H](O)[C@@H]1O`, for which the concentration for half-maximal inhibition (IC50) in assay [4] came to 13.8 µM. This lies in the double-digit micromolar range. Turning to `OC[C@H]1OC(O)[C@@H](F)[C@@H](O)[C@@H]1O` (stereo not given in full), the inhibition entry in assay [3] and in assay [2] was “inactive” each time. As to `Cc1cc(=O)oc2cc(O[C@H]3O[C@H](CO)[C@@H](O)[C@H](O)[C@@H]3O)ccc12`, the IC50 in assay [4] is 14.5 µM.

Take `C[C@@H]1O[C@H](C)[C@@H](O)[C@H](O)[C@@H]1O`: the inhibition entry in assay [2] is “inactive”.

Values taken from ChEMBL document CHEMBL3797049, “Development of a competitive binding assay for the Burkholderia cenocepacia lectin BC2L-A and structure activity relationship of natural and synthetic inhibitors” (Medchemcomm, 2016).
